Source: EPA's ToxRefDB 2

What was measured:
mouse [1] = conditions: Combined chronic toxicity/carcinogenicity, b6c3f1, Oral, Gavage/Intubation, dose end: 104 week, group: systemic
mouse [2] = conditions: Subchronic oral toxicity in rodents, b6c3f1, Gavage/Intubation, dose end: 14 week, group: systemic
rat [3] = conditions: Combined chronic toxicity/carcinogenicity, fischer, Oral, Gavage/Intubation, dose end: 104 week, group: systemic
rat [4] = conditions: Subchronic oral toxicity in rodents, fischer, Gavage/Intubation, dose end: 14 week, group: systemic
dog = conditions: Chronic toxicity; beagle; Oral; Feed; dose end: 6 month; group: systemic; systemic / clinical chemistry / cholesterol / cholesterol + systemic / organ weight / liver / absolute + systemic / organ weight / liver / …
rat [5] = conditions: Prenatal developmental toxicity study, sprague dawley, Oral, Gavage/Intubation, dose end: 15 GD
rabbit = conditions: Prenatal developmental toxicity study, new zealand white, Oral, Gavage/Intubation, dose end: 19 GD
mouse [6] = conditions: Carcinogenicity, cd1, Oral, Feed, dose end: 104 week, group: systemic
mouse [7] = conditions: Combined chronic toxicity/carcinogenicity, cd1, Oral, Feed, dose end: 104 week, group: systemic
rat [8] = conditions: Multigenerational reproductive toxicity study, wistar, Oral, Feed, dose end: 2 generation
[9] = systemic / pathology microscopic / salivary glands / cytoplasmic alteration
[10] = systemic / pathology microscopic / salivary glands / cytoplasmic alteration + systemic / pathology microscopic / liver / carcinoma
[11] = systemic / pathology microscopic / adrenal gland / atrophy + systemic / pathology microscopic / adrenal gland / vacuolization + systemic / …
[12] = systemic / pathology microscopic / liver / basophilic focus
[13] = systemic / pathology microscopic / pancreas / atrophy + systemic / pathology microscopic / pancreas / hyperplasia + systemic / pathology …
[14] = systemic / in life observation / body weight / body weight + systemic / in life observation / body weight / body weight gain
[15] = systemic / in life observation / body weight / body weight + systemic / in life observation / body weight / body weight gain + systemic / …
[16] = group: developmental, developmental / developmental malformation / bone / bipartite ossification + developmental / developmental malformation / bone / short …
[17] = group: maternal, systemic / in life observation / body weight / body weight gain
[18] = group: maternal, systemic / in life observation / body weight / body weight gain + systemic / in life observation / food consumption / food consumption
[19] = group: developmental, developmental / developmental malformation / bone / incomplete ossification + developmental / developmental malformation / bone / …
[20] = group: developmental, developmental / developmental malformation / bone / unossified
[21] = group: maternal, reproductive / reproductive performance / aborted / aborted + systemic / in life observation / body weight / body weight gain
[22] = systemic / organ weight / liver / absolute + systemic / organ weight / liver / relative to body weight + systemic / pathology gross / spleen…
[23] = systemic / pathology microscopic / liver / [other]
[24] = systemic / organ weight / liver / absolute + systemic / pathology gross / spleen / enlarged + systemic / pathology microscopic / kidney / …
[25] = group: offspring, systemic / in life observation / body weight / offspring (pup) weight gain + systemic / organ weight / liver / relative to body weight
[26] = group: offspring, systemic / in life observation / body weight / offspring (pup) weight gain + systemic / organ weight / liver / relative to body weight + …
[27] = group: parental, systemic / organ weight / kidney / absolute + systemic / organ weight / kidney / relative to body weight + systemic / organ weight / liver…
[28] = group: reproductive, reproductive / reproductive performance / precoital interval / precoital interval

**Q.** `C[C@]12CCC(=O)C=C1CC[C@@H]1[C@@H]2CC[C@]2(C)C(=O)CC[C@@H]12` [4-Androstene-3,17-dione] was tested. Which LOAEL (mouse [1]; [9]) did it give?
**A.** The LOAEL was 2 mg/kg/day.

**Q.** And the NOAEL (mouse [1]; [9])?
**A.** Its NOAEL is less than 2 mg/kg/day.

**Q.** And the LEL (mouse [1]; [10])?
**A.** The LEL was 2 mg/kg/day.

**Q.** What about the NEL (mouse [1]; [10]) of the same molecule?
**A.** The NEL was less than 2 mg/kg/day.

**Q.** What about the LEL (mouse [2]; systemic / pathology microscopic / adrenal gland / atrophy) of the same molecule?
**A.** The LEL was 5 mg/kg/day.

**Q.** And the NEL (mouse [2]; systemic / pathology microscopic / adrenal gland / atrophy + systemic / pathology microscopic / adrenal gland / vacuolization)?
**A.** The NEL was 1 mg/kg/day.

**Q.** What about the LOAEL (mouse [2]; [11]) of the same molecule?
**A.** Its LOAEL is greater than 50 mg/kg/day.

**Q.** And the NOAEL (mouse [2]; [11])?
**A.** The NOAEL was no less than 50 mg/kg/day.

**Q.** And the LEL (rat [3]; [12])?
**A.** Its LEL is 10 mg/kg/day.

**Q.** What about the NEL (rat [3]; [12]) of the same molecule?
**A.** Its NEL is less than 10 mg/kg/day.

**Q.** What about the LOAEL (rat [3]; [13]) of the same molecule?
**A.** The LOAEL was 50 mg/kg/day.

**Q.** And the NOAEL (rat [3]; [13])?
**A.** Its NOAEL is 20 mg/kg/day.

**Q.** And the LEL (rat [4]; [14])?
**A.** The LEL was 1 mg/kg/day.

**Q.** And the NEL (rat [4]; [14])?
**A.** The NEL was less than 1 mg/kg/day.

**Q.** And the LOAEL (rat [4]; [15])?
**A.** Its LOAEL is greater than 50 mg/kg/day.

**Q.** And the NOAEL (rat [4]; [15])?
**A.** The NOAEL was no less than 50 mg/kg/day.

**Q.** Which LEL (dog) does the source give for `CNc1cnn(-c2cccc(C(F)(F)F)c2)c(=O)c1Cl` [Norflurazon] here?
**A.** Its LEL is 4.77 mg/kg/day.

**Q.** And the LOAEL (dog)?
**A.** Its LOAEL is 4.77 mg/kg/day.

**Q.** And the NEL (dog)?
**A.** Its NEL is 1.58 mg/kg/day.

**Q.** What about the NOAEL (dog) of the same molecule?
**A.** Its NOAEL is 1.58 mg/kg/day.

**Q.** What about the LEL (rat [5]; [16]) of the same molecule?
**A.** The LEL was 400 mg/kg/day.

**Q.** What about the LOAEL (rat [5]; [16]) of the same molecule?
**A.** Its LOAEL is greater than 400 mg/kg/day.

**Q.** And the NEL (rat [5]; [16])?
**A.** The NEL was 200 mg/kg/day.

**Q.** And the NOAEL (rat [5]; [16])?
**A.** Its NOAEL is no less than 400 mg/kg/day.

**Q.** What about the LOAEL (rat [5]; [17]) of the same molecule?
**A.** The LOAEL was 100 mg/kg/day.

**Q.** And the NOAEL (rat [5]; [17])?
**A.** The NOAEL was less than 100 mg/kg/day.

**Q.** And the LEL (rat [5]; [18])?
**A.** Its LEL is 100 mg/kg/day.

**Q.** What about the NEL (rat [5]; [18]) of the same molecule?
**A.** Its NEL is less than 100 mg/kg/day.

**Q.** What about the LOAEL (rabbit; [19]) of the same molecule?
**A.** Its LOAEL is 30 mg/kg/day.

**Q.** What about the NOAEL (rabbit; [19]) of the same molecule?
**A.** Its NOAEL is 10 mg/kg/day.

**Q.** What about the LEL (rabbit; [20]) of the same molecule?
**A.** The LEL was 10 mg/kg/day.

**Q.** And the NEL (rabbit; [20])?
**A.** Its NEL is less than 10 mg/kg/day.

**Q.** What about the LEL (rabbit; [21]) of the same molecule?
**A.** Its LEL is 60 mg/kg/day.

**Q.** And the LOAEL (rabbit; [21])?
**A.** The LOAEL was 60 mg/kg/day.

**Q.** What about the NEL (rabbit; [21]) of the same molecule?
**A.** The NEL was 30 mg/kg/day.

**Q.** And the NOAEL (rabbit; [21])?
**A.** Its NOAEL is 30 mg/kg/day.

**Q.** And the LOAEL (mouse [6]; [22])?
**A.** Its LOAEL is 58.7 mg/kg/day.

**Q.** And the NOAEL (mouse [6]; [22])?
**A.** The NOAEL was 12.8 mg/kg/day.

**Q.** What about the LEL (mouse [6]; [23]) of the same molecule?
**A.** The LEL was 12.8 mg/kg/day.

**Q.** What about the NEL (mouse [6]; [23]) of the same molecule?
**A.** The NEL was less than 12.8 mg/kg/day.

**Q.** And the NEL (mouse [7]; systemic / organ weight / liver / absolute + systemic / organ weight / liver / relative to body weight + systemic / pathology gross / liver…)?
**A.** The NEL was 12.8 mg/kg/day.

**Q.** And the LEL (mouse [7]; [24])?
**A.** Its LEL is 58.7 mg/kg/day.

**Q.** And the LOAEL (mouse [7]; [24])?
**A.** The LOAEL was 58.7 mg/kg/day.

**Q.** And the NOAEL (mouse [7]; [24])?
**A.** Its NOAEL is 12.8 mg/kg/day.

**Q.** And the LEL (rat [8]; [25])?
**A.** Its LEL is 67.8 mg/kg/day.

**Q.** What about the LOAEL (rat [8]; [25]) of the same molecule?
**A.** The LOAEL was 67.8 mg/kg/day.

**Q.** What about the NEL (rat [8]; [26]) of the same molecule?
**A.** Its NEL is 13.2 mg/kg/day.

**Q.** What about the NOAEL (rat [8]; [26]) of the same molecule?
**A.** Its NOAEL is 13.2 mg/kg/day.

**Q.** And the LEL (rat [8]; [27])?
**A.** The LEL was 50.8 mg/kg/day.

**Q.** And the LOAEL (rat [8]; [27])?
**A.** The LOAEL was 50.8 mg/kg/day.

**Q.** What about the NEL (rat [8]; [27]) of the same molecule?
**A.** The NEL was 10.2 mg/kg/day.

**Q.** What about the NOAEL (rat [8]; [27]) of the same molecule?
**A.** Its NOAEL is 10.2 mg/kg/day.

**Q.** And the LEL (rat [8]; [28])?
**A.** Its LEL is 102 mg/kg/day.

**Q.** What about the LOAEL (rat [8]; [28]) of the same molecule?
**A.** Its LOAEL is 102 mg/kg/day.

**Q.** And the NEL (rat [8]; [28])?
**A.** The NEL was 50.8 mg/kg/day.

**Q.** What about the NOAEL (rat [8]; [28]) of the same molecule?
**A.** The NOAEL was 50.8 mg/kg/day.
